The record followed here is US7635716B2, “Substituted cyclopentanes or cyclopentanones as therapeutic agents” (Allergan, Inc., priority 2005, dated 2009).

Like-named read-outs stand apart in the source and are kept apart here. Some results are limits rather than exact numbers.

In series [1] the test system is normotensive dogs. Briefly: Ocular surface hyperemia (OSH) in normotensive dogs. It is filed as in vivo, dog. On the set-up: maximum OSH score: scale not given here. Particulars: dosing once daily for 5 days. On the procedure: (§1) (Z)-7-[(1R,2S,3R,5R)-5-Chloro-2-(3,5-dichloro-phenoxymethyl)-3-hydroxy-cyclopentyl]-hept-5-enoic acid (15b) was tested at multiple concentrations in normotensive dogs, dosing once daily for 5 days. At 0.05%, the maximum IOP decrease from baseline was 4.3 mmHg (30%) at 6 h; the maximum OSH score was 0.6 at 6 h. […] This compound was also tested in laser-induced hypertensive monkeys, using one single day dose. At 0.1%, the maximum IOP decrease from baseline was 6 mmHg (19%) at 6 h.
(§2) (Z)-7-[(1R,2S,3R,5R)-5-Chloro-2-(3,5-dichloro-phenoxymethyl)-3-hydroxy-cyclopentyl]-hept-5-enoic acid isopropyl ester (42b) was tested in normotensive dogs at 0.05%, dosing once daily for 5 days. The maximum intraocular pressure (IOP) decrease from baseline was 3 mmHg (19%) at 6 h; the maximum ocular surface hyperemia (OSH) score was 0.6 at 74 h. This compound was also tested in laser-induced hypertensive monkeys, using one single day dose. At 0.01%, the maximum IOP decrease from baseline was 6 mmHg (16%) at 6 h.

The subject of series [2] is laser-induced hypertensive monkeys. Briefly: Intraocular pressure (IOP) in laser-induced hypertensive monkeys. Particulars: Primates, topical, one single day dose, read-out: maximum IOP decrease from baseline (percent). It is filed as in vivo, monkey. How it is done:
as §1, §2

Series [3] has as its system normotensive dogs. Briefly: Intraocular pressure (IOP) in normotensive dogs. The settings on record: Canis lupus familiaris, topical, 120 h, dosing once daily for 5 days, read-out: maximum IOP decrease from baseline (percent). It is filed as in vivo, dog. How it is done:
as §1, §2

Series [4] has as its system normotensive dogs. Description: Intraocular pressure (IOP) in normotensive dogs. The format is in vivo, dog. Particulars: Canis lupus familiaris, topical, 120 h, dosing once daily for 5 days, read-out: maximum IOP decrease from baseline (percent). This is another data set of the same source.
Series [5] concerns the target T1, hTP (Homo sapiens, UniProt P21731).
T1 construct: expressed in transfected cells; host or cells: HEK-293(EBNA) cells
T1 sequence (P21731 1-343): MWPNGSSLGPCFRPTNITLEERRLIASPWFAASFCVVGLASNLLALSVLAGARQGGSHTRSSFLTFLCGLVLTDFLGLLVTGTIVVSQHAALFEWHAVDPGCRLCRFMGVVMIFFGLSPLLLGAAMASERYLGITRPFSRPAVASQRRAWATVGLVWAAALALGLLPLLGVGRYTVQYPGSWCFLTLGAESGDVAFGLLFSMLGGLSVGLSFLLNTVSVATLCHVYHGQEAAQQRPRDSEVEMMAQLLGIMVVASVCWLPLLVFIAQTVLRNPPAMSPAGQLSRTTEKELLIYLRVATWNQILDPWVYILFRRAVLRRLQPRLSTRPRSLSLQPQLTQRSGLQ
Briefly: FLIPR calcium signal, HEK-293(EBNA) cells. It is filed as cell-based. How it is done: (§3) HEK-293(EBNA) cells, stably expressing one type or subtype of recombinant human prostaglandin receptors (prostaglandin receptors expressed: hDP/Gqs5; hEP1; hEP2/Gqs5; hEP3A/Gqi5; hEP4/Gqs5; hFP; hIP; hTP), were cultured in 100 mm culture dishes in high-glucose DMEM medium containing 10% fetal bovine serum, 2 mM 1-glutamine, 250 μg/ml geneticin (G418) and 200 μg/ml hygromycin B as selection markers, and 100 units/ml penicillin G, 100 μg/ml streptomycin and 0.25 μg/ml amphotericin B.
(§4) Cells were seeded at a density of 5×10^4 cells per well in Biocoat® Poly-D-lysine-coated black-wall, clear-bottom 96-well plates (Becton-Dickinson) and allowed to attach overnight in an incubator at 37° C. Cells were then washed two times with HBSS-HEPES buffer (Hanks Balanced Salt Solution without bicarbonate and phenol red, 20 mM HEPES, pH 7.4) using a Denley Cellwash plate washer (Labsystems). After 45 minutes of dye-loading in the dark, using the calcium-sensitive dye Fluo-4 AM at a final concentration of 2 μM, plates were washed four times with HBSS-HEPES buffer to remove excess dye leaving 100 μl in each well. Plates were re-equilibrated to 37° C. for a few minutes.
(§5) Cells were excited with an Argon laser at 488 nm, and emission was measured through a 510-570 nm bandwidth emission filter (FLIPR™, Molecular Devices, Sunnyvale, Calif.). Drug solution was added in a 50 μl volume to each well to give the desired final concentration. The peak increase in fluorescence intensity was recorded for each well. On each plate, four wells each served as negative (HBSS-HEPES buffer) and positive controls (standard agonists: BW245C (hDP); PGE2 (hEP1; hEP2/Gqs5; hEP3A/Gqi5; hEP4/Gqs5); PGF2. (hFP); carbacyclin (hIP); U-46619 (hTP), depending on receptor). The peak fluorescence change in each drug-containing well was then expressed relative to the controls.
(§6) Compounds were tested in a high-throughput (HTS) or concentration-response (CoRe) format. In the HTS format, forty-four compounds per plate were examined in duplicates at a concentration of 10^−5 M. To generate concentration-response curves, four compounds per plate were tested in duplicates in a concentration range between 10^−5 and 10^−11 M. The duplicate values were averaged. In either, HTS or CoRe format each compound was tested on at least 3 separate plates using cells from different passages to give an n≧3.

Series [6] deals with T2, hEP3A/Gqi5 (Homo sapiens, UniProt P43115).
T2 construct: expressed in transfected cells; host or cells: HEK-293(EBNA) cells
T2 sequence (P43115 1-390): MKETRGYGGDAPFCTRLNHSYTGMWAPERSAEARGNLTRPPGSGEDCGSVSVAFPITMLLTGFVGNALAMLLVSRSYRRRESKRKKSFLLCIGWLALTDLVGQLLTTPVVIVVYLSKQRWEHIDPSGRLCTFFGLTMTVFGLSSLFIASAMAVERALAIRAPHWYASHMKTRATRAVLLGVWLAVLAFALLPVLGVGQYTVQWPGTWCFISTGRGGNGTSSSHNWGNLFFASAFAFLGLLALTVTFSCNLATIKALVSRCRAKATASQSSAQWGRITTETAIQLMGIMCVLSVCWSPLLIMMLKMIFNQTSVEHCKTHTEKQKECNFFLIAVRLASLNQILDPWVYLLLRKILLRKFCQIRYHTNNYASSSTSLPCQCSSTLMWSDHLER
Briefly: FLIPR calcium signal, HEK-293(EBNA) cells. The format is cell-based. How it is done:
as §3, §4, §5, §6

In series [7] the target is T3, hEP4/Gqs5 (Homo sapiens, UniProt P35408).
T3 construct: expressed in transfected cells; host or cells: HEK-293(EBNA) cells
Description: FLIPR calcium signal, HEK-293(EBNA) cells. The format is cell-based. How it is done:
as §3, §4, §5, §6

Series [8] has as its target T4, hEP2/Gqs5 (Homo sapiens, UniProt P43116).
T4 construct: expressed in transfected cells; host or cells: HEK-293(EBNA) cells
Briefly: FLIPR calcium signal, HEK-293(EBNA) cells. The settings on record: Table 1, first part; triplicate; read-out: functional data (EC50) hEP2. It is filed as cell-based. On the procedure: as §3, §4, §5, §6

The target in series [9] is T5, hDP/Gqs5 (Homo sapiens, UniProt Q13258).
T5 construct: expressed in transfected cells; host or cells: HEK-293(EBNA) cells
T5 sequence (Q13258 1-359): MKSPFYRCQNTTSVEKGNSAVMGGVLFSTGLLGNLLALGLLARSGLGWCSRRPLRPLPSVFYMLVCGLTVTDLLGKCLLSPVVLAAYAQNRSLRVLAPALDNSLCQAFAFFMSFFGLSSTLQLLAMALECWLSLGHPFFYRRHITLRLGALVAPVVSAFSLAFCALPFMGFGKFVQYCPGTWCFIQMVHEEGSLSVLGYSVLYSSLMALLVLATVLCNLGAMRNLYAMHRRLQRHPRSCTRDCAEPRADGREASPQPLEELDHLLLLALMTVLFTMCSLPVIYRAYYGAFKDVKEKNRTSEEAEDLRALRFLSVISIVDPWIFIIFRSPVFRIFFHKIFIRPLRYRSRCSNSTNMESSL
Briefly: FLIPR calcium signal, HEK-293(EBNA) cells. It is filed as cell-based. On the procedure:
as §3, §4, §5, §6

Series [10] deals with T6, hFP (Homo sapiens, UniProt P43088).
T6 construct: expressed in transfected cells; host or cells: HEK-293(EBNA) cells
Description: FLIPR calcium signal, HEK-293(EBNA) cells. The format is cell-based. On the procedure:
as §3, §4, §5, §6

T6 sequence (P43088 whole entry): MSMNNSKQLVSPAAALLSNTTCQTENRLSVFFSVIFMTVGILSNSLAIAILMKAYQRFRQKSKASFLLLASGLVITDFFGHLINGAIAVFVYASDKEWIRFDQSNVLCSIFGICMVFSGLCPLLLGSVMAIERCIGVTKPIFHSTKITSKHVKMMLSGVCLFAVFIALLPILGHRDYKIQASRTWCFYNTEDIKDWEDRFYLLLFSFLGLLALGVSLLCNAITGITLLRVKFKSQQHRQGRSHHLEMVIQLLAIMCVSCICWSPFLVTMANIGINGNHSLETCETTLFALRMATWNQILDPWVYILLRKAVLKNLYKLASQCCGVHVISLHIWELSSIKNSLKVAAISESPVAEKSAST
T3 sequence (P35408 whole entry): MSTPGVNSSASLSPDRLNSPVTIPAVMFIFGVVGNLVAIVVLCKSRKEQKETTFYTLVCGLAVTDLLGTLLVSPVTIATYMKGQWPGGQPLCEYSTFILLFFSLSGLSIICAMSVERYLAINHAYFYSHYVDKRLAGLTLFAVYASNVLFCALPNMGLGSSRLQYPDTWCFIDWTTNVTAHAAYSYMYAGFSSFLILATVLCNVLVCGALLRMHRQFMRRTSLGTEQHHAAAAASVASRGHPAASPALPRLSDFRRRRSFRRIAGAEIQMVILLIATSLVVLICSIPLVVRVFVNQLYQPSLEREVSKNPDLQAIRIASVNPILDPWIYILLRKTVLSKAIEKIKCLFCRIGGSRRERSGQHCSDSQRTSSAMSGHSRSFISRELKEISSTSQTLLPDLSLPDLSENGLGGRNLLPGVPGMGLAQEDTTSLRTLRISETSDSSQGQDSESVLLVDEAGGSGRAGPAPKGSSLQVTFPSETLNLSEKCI
T4 sequence (P43116 whole entry): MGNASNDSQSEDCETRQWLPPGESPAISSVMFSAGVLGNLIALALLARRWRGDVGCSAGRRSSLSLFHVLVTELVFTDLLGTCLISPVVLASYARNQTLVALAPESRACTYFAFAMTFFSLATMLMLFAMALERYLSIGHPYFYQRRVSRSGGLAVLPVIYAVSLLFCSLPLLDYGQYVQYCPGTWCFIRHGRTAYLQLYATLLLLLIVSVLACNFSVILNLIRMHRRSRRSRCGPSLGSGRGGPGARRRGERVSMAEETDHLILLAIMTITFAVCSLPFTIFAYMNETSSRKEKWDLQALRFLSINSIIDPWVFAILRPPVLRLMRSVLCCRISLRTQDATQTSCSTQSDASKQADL

Take `CC(C)OC(=O)CCC/C=C\C[C@@H]1[C@@H](COc2ccc(CO)cc2)[C@H](O)C[C@H]1Cl` [Example 71, (Z)-7-[(1R,2S,3R,5R)-5-Chloro-3-hydroxy-2-(4-hydroxymethyl-phenoxymethyl)-cyclopentyl]-hept-5-enoic acid isopropyl ester]: in series [1] (0.1%), the “maximum OSH score” value is on record as 0.6 and the “time of maximum OSH score” value was 30 h. In [2], the inhibition in vivo at 0.1 % stood at 16%. Further, the inhibition in vivo at 0.1 % in series [3] was 33%.
In the same order, the values of `O=C(O)CCC/C=C\C[C@@H]1[C@@H](COc2ccc(CO)cc2)[C@H](O)C[C@H]1Cl` [Example 43, (Z)-7-[(1R,2S,3R,5R)-5-Chloro-3-hydroxy-2-(4-hydroxymethyl-phenoxymethyl)-cyclopentyl]-hept-5-enoic acid] are 0.6, 98 h, 6% and 20%.
With `CC(C)OC(=O)CCC/C=C\C[C@@H]1[C@@H](COc2cc(C(F)(F)F)cc(C(F)(F)F)c2)[C@H](O)C[C@H]1Cl` [Example 68, (Z)-7-[(1R,2S,3R,5R)-2-(3,5-Bis-trifluoromethyl-phenoxymethyl)-5-chloro-3-hydroxy-cyclopentyl]-hept-5-enoic acid isopropyl ester], the inhibition in vivo at 0.03 % in series [4] stood at 14%. In series [1] (0.03%), the “maximum OSH score” value is recorded as 0.7 and the “time of maximum OSH score” value came to 78 h. The inhibition in vivo at 0.03 % in series [2] (0.03%) is 11%.
For `COC(=O)CCC/C=C\C[C@@H]1[C@@H](COc2cc(Cl)cc(Cl)c2)[C@H](O)C[C@H]1Cl` [Example 11, (Z)-7-[(1R,2S,3R,5R)-5-Chloro-2-(3,5-dichloro-phenoxymethyl)-3-hydroxy-cyclopentyl]-hept-5-enoic acid methyl ester], the EC50 was over 10 µM in series [5] (Table 1, first part, triplicate, read-out: functional data (EC50) hTP); over 10 µM in [5] (Table 1, second part, quantity not given, values match functional data (EC50) of first part, read-out: Other Receptors hTP); 9.87 µM in series [6] (Table 1, first part, data represents a single experiment, read-out: functional data (EC50) hEP3A*); 9.87 µM in series [6] (Table 1, second part, quantity not given, values match functional data (EC50) of first part, read-out: Other Receptors hEP3); over 10 µM in [7] (Table 1, first part, triplicate, read-out: functional data (EC50) hEP4); over 10 µM in series [7] (Table 1, second part, read-out: hEP4 flipr EC50). Besides, the EC50 in [8] was 0.616 µM; in series [9] (Table 1, first part, triplicate, read-out: functional data (EC50) hDP), over 10 µM; in [9] (Table 1, second part, quantity not given, values match functional data (EC50) of first part, read-out: Other Receptors hDP), over 10 µM; in [10] (Table 1, first part, triplicate, read-out: functional data (EC50) hFP), over 10 µM; in series [10] (Table 1, second part, quantity not given, values match functional data (EC50) of first part, read-out: Other Receptors hFP) it was over 10 µM.
Consider `CC(C)OC(=O)CCC/C=C\C[C@@H]1[C@@H](COc2cccc(C(F)(F)F)c2)[C@H](O)C[C@H]1Cl` [Example 69, (Z)-7-[(1R,2S,3R,5R)-5-Chloro-3-hydroxy-2-(3-trifluoromethyl-phenoxymethyl)-cyclopentyl]-hept-5-enoic acid isopropyl ester], for which, in series [1] (0.1%), the “maximum OSH score” value was 0.6 and the “time of maximum OSH score” value is recorded as 50 h. For the same compound, the inhibition in vivo at 0.1 % in series [2] came to 14%. Also, the inhibition in vivo at 0.1 % in [3] was found to be 19%.
Turning to `Cc1cc(C)cc(OC[C@@H]2[C@@H](C/C=C\CCCC(=O)O)[C@H](Cl)C[C@H]2O)c1` [Example 36, (Z)-7-[(1R,2S,3R,5R)-5-Chloro-2-(3,5-dimethyl-phenoxymethyl)-3-hydroxy-cyclopentyl]-hept-5-enoic acid], the “maximum OSH score” value in series [1] (0.1%) was 1.2. Further, in series [1] (0.1%), the “time of maximum OSH score” value is given as 28 h. Further, the inhibition in vivo at 0.1 % turned out to be 25% in [2] and 46% in series [3].
Turning to `CC(C)OC(=O)CCC/C=C\C[C@@H]1[C@@H](COc2cc(Cl)cc(Cl)c2)[C@H](O)C[C@H]1Cl` [Example 67, (Z)-7-[(1R,2S,3R,5R)-5-Chloro-2-(3,5-dichloro-phenoxymethyl)-3-hydroxy-cyclopentyl]-hept-5-enoic acid isopropyl ester], in series [1] (0.05%), the “maximum OSH score” value is given as 0.6 and the “time of maximum OSH score” value turned out to be 74 h. Besides, the inhibition in vivo at 0.01 % in [2] (0.01%) came out at 16%. In addition, the inhibition in vivo at 0.05 % in series [3] (0.05%) was found to be 19%.
